Eight compounds from PubChem BioAssay (NCI) can be followed below.

What all share (test): inhibition of tumour cell growth, NCI panel, 48 h
Test [1] deals with MDA-N.
Test [2] relates to SNB-75 CNS.
The test system of test [3] is HL-60(TB) leukemia.
Test [4] concerns MDA-MB-435.
The subject of test [5] is SF-268 CNS.
Test [6] relates to SF-295 CNS.
Test [7] concerns SN12C renal.
Test [8] concerns OVCAR-5 ovarian.
Test [9] concerns HOP-92 NSCLC.
Test [10] deals with A549 NSCLC.
Test [11] relates to MCF7 breast.
Test [12] concerns OVCAR-8 ovarian.
Test [13] concerns CAKI-1 renal.
The test system of test [14] is SK-OV-3 ovarian.
Test [15] deals with UO-31 renal.
Test [16] deals with RXF 393 renal.
Test [17] concerns OVCAR-4 ovarian.
Test [18] deals with SK-MEL-2 melanoma.
Test [19] has as its system RPMI-8226 leukemia.
Test [20] has as its system NCI-H226 lung.

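1) Cells in 96-well plates. 2) Compound, 48 h, 5 concentrations. 3) Linear interpolation between surrounding doses. 4) Unreached endpoint = highest concentration. TGI is the concentration that stops growth completely.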

As for `CSc1c(CC(=O)O)n(Cc2ccccc2)c2ccccc12`, the TGI in test [1], in [2], in [3], in test [4], in test [5] and in test [6] was above 100 µM each time. For the same compound, the TGI in test [7], in test [8], in test [9], in test [10], in test [11] and in test [12] was above 100 µM in each case. The TGI in [13], in test [14], in test [15], in test [16], in [17] and in [18] was above 100 µM in each case. The compound further yielded a TGI in test [19] above 100 µM.

For the compound `CC1(C)CC(=O)C(CC(C(=O)C(=O)Nc2cc(C(F)(F)F)ccc2Cl)C(=O)c2ccco2)C(=O)C1` (centres undefined), the TGI in test [1], in [3], in test [4], in [20], in test [5] and in test [6] was above 100 µM each time. Further, the TGI in test [7], in test [8], in [9], in test [10], in [11] and in [12] was above 100 µM in each case. Also, the TGI in test [13], in test [14], in [15], in test [17], in test [18] and in test [19] was above 100 µM each time.

As for `O=C(O)Cn1nnc2c(=O)[nH][nH]c(=O)c21`, the TGI in [1], in test [3], in test [4], in test [6], in test [7] and in test [8] was above 100 µM throughout. In addition, the TGI in test [9], in test [10], in test [11], in test [12], in [13] and in [15] was above 100 µM throughout. Further, the TGI in [17] is above 10 µM; in test [18], above 100 µM; in test [19], above 100 µM.

As for `NC(=O)Cc1ncn(-c2ccccc2)n1`, the TGI in test [1], in test [2], in test [3], in [4], in [20] and in test [5] was above 100 µM each time. Besides, the TGI in test [6], in [7], in [8], in test [9], in test [10] and in test [11] was above 100 µM each time. For the same compound, the TGI in test [12], in [13], in [14], in test [15], in test [16] and in [18] was above 100 µM throughout. The TGI in test [19] was above 100 µM.

On to `COc1ccc(OC)c(C2CCCc3c2cnc2nc(N)nc(N)c32)c1` (centres undefined), for which the TGI in test [1] was above 100 µM; in [2], 41 µM; in [3], above 100 µM; in test [4], above 100 µM; in [20] it was above 100 µM; in test [5], above 100 µM. Also, the TGI is above 100 µM in test [6]; above 100 µM in test [7]; above 100 µM in test [9]; above 100 µM in [10]; 0.017 µM in [11]; above 100 µM in test [12]. Also, the TGI in [13], in test [14], in test [15], in [17], in [18] and in test [19] was above 100 µM throughout.

As to `Cc1[nH]c2ncn3ncnc3c2c1Cc1ccccc1`, the TGI in [1], in test [2], in [3], in [4], in test [20] and in test [5] was above 100 µM throughout. In addition, the TGI in test [6], in test [7], in test [8], in test [9], in test [10] and in test [11] was above 100 µM each time. For the same compound, the TGI in test [12], in test [13], in test [14], in test [15], in test [16] and in test [17] was above 100 µM each time. The TGI in test [18] was above 100 µM.

Turning to `CCN(CC)CCCC(C)NC(=O)c1cc(-c2nccn2C)nc2ccc(C)cc12` (centres undefined), the TGI in test [1], in test [2], in test [3], in test [4], in [20] and in test [5] was above 100 µM throughout. Further, the TGI in test [8], in test [9], in test [10], in [11], in test [12] and in test [13] was above 100 µM each time. The TGI in test [15], in [16], in test [17], in test [18] and in test [19] was above 100 µM throughout.

On to `CCOC(=O)C1(Cc2ccccc2)Cc2cc3c(cc2C1=O)CCC3` (centres undefined), for which the TGI in [1], in test [2], in test [3], in [4], in test [20] and in test [5] was above 100 µM in each case. The TGI in test [6], in test [7], in test [8], in test [9], in [10] and in [11] was above 100 µM each time. Moreover, the TGI in test [12], in test [14], in test [15], in test [16], in [17] and in [18] was above 100 µM each time. Moreover, in test [19], the TGI is above 100 µM.
